What was measured:
[1] = tested on: Diabetic Hamster; assay: Single dose efficacy on glucose tolerance (OGTT) in diabetic hamster; format: in vivo; conditions: Mesocricetus auratus, read-out: Decrease in AUC of glucose % change w.r.t. vehicle control group; for inhibition in vivo at 36 mg/kg: single oral dose 36 mg/kg; for inhibition in vivo at 41 mg/kg: single oral dose 41 mg/kg
Method: i) Evaluation of Single Dose Efficacy of Test Compounds on Glucose Tolerance:
Thus efficacy can be assessed through the effect of test compounds on lowering of plasma glucose during OGTT through stimulating glucose stimulated insulin secretion.
The potential of test compounds in lowering of Plasma Glucose was evaluated in Oral glucose tolerance test (OGTT) in Diabetic Hamster Model, where diabetes has been induced by administration of low dose of Streptozotocin (STZ) to the High fat diet (HFD) fed glucose intolerant animals. The diabetic hamsters show impaired glucose stimulated insulin secretion and higher plasma glucose excursions than the normal animals, which remains elevated beyond 2 hrs post glucose load. Thus the animal model can be used for evaluating the potential of test compounds to lower plasma glucose through stimulating glucose stimulated insulin secretion. On the day of study post 6 hrs of fasting, test compounds or vehicle was administered orally at dose volume of 2 ml/kg to the hamsters of the respective treatment groups. Subsequent to dosing, a pre-glucose load blood sample was taken. A glucose load of 40% solution at 5 ml/Kg dose volume was administered orally. Blood samples through retroorbital plexus were taken at 15, 30 60 & 120 min. post glucose load and plasma was separated for glucose measurement. Post glucose load percentage change in plasma glucose and AUC of % change glucose by the treatment was assessed.

[2] = biological target: T1, human TGR5 (Homo sapiens, UniProt Q8TDU6); assay: cAMP Measurement Assay (Alphascreen); format: cell-based; conditions: cAMP levels, CHO cells transfected with human TGR5, one hour
T1 construct: host or cells: CHO cells (ATCC)
T1 sequence (Q8TDU6 1-330): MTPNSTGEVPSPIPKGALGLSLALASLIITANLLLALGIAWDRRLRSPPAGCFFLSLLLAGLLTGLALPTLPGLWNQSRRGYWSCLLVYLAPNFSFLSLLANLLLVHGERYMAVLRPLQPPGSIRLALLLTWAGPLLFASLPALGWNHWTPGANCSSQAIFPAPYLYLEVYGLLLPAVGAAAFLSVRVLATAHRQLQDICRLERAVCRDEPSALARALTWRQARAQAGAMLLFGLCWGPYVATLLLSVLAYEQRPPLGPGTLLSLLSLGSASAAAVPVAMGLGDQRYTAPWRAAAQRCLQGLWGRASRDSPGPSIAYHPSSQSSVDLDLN
Method: (B) cAMP Measurement Assay:
CHO cells (ATCC) were transfected with human TGR5 vector (oriGene). Transfected cells were treated with vehicle control or test compounds for one hour and then lysed. Levels of cAMP were measured in cell lysates employing Alphascreen cAMP assay kit (Perkin Elmer) and results were expressed EC50 values which are summarized in Table 3.

[3] = biological target: T1, human TGR5; assay: cAMP Responsive Element (CRE)-Reporter Assay; format: cell-based; conditions: luciferase activity relative to vehicle control, five hours, CHO cells transfected with human TGR5 and CRE-luciferase
Method: (A) cAMP Responsive Element (CRE)-Reporter Assay:
CHO cells (ATCC) were transfected with human TGR5 (oriGene) and CRE-luciferase reporter vector. Transfected cells were treated with vehicle control or test compounds (Conc 10 μM) for five hours and then lysed. Cell lysates were monitored for luciferase acivity. Increase in luciferase activity is considered as a result of TGR5 activation. Results were expressed as fold induction as compared to vehicle control.
Results are summarized in Table 2 where, + indicates 1.5-2 fold while ++, +++, ++++ indicate 2-3 fold, 3-4 fold, and >4 fold induction respectively relative to vehicle control when tested at 10 μM concentration.

[4] = tested on: Human enteroendocrine cell-line (NCI-H716); assay: Measurement of Glucagon Like Peptide-1 (GLP-1) secretion; format: cell-based; conditions: NCI-H716 cells, one hour, with respect to vehicle control
Method: (C) Measurement of Glucagon Like Peptide-1 (GLP-1):
Human enteroendocrine cell-line (NCI-H716) were incubated with vehicle or test compounds for one hour. At the end of incubation period, levels of secreted GLP-1 in culture medium were measured by GLP-1 ELISA kit (Millipore). Results are summarized as fold increase in GLP secretion with respect to vehicle control in Table 4.

Row | SMILES | fold induction at 10 µM [3] | other results
1 | CN(C(=O)c1c(-c2ccccc2)nc2ncccn12)c1ccc(Cl)cc1 [Compound no. 1, N-(4-chlorophenyl)-N-methyl-2-phenylimidazo[1,2-a]pyrimidine-3-carboxamide] | > 4 | inhibition in vivo at 36 mg/kg [1]: 33%; EC50 [2]: 35 nM
2 | CN(C(=O)c1c(-c2ccc(F)cc2)nc2ncccn12)c1ccc(F)cc1 [Compound no. 22, N,2-bis(4-fluorophenyl)-N-methylimidazo[1,2-a]pyrimidine-3-carboxamide] | 3 to 4 | inhibition in vivo at 36 mg/kg [1]: 20%; Fold increase in GLP Release [4]: 2.13 fold
3 | CN(C(=O)c1c(-c2ccc3c(c2)OCO3)nc2ncccn12)c1ccc(F)cc1 [Compound no. 28, 2-(1,3-benzodioxol-5-yl)-N-(4-fluorophenyl)-N-methylimidazo[1,2-a]pyrimidine-3-carboxamide] | 2 to 3 | inhibition in vivo at 39 mg/kg ([1]; single oral dose 39 mg/kg): 5%; Fold increase in GLP Release [4]: 2.03 fold
4 | CN(C(=O)c1c(-c2cccc(C(F)(F)F)c2)nc2ncccn12)c1ccc(F)cc1 [Compound no. 33, N-(4-fluorophenyl)-N-methyl-2-[3-(trifluoromethyl)phenyl]imidazo[1,2-a]pyrimidine-3-carboxamide] | > 4 | inhibition in vivo at 41 mg/kg [1]: 20%; Fold increase in GLP Release [4]: 1.83 fold; EC50 [2]: 155 nM
5 | CN(C(=O)c1c(-c2cccc(C#N)c2)nc2ncccn12)c1ccc(Cl)cc1 [Compound no. 36, N-(4-chlorophenyl)-2-(3-cyanophenyl)-N-methylimidazo[1,2-a]pyrimidine-3-carboxamide] | 2 to 3 | inhibition in vivo at 38 mg/kg ([1]; single oral dose 38 mg/kg): 8%
6 | CC(C)N(C(=O)c1c(-c2ccc(F)cc2)nc2ncccn12)c1ccc(Cl)cc1 [Compound no. 65, N-(4-chlorophenyl)-2-(4-fluorophenyl)-N-(propan-2-yl)imidazo[1,2-a]pyrimidine-3-carboxamide] | 3 to 4 | inhibition in vivo at 41 mg/kg [1]: 10%
7 | CN(C(=O)c1c(-c2ccc(O)cc2)nc2ncccn12)c1ccc(Cl)cc1 [compound 30, N-(4-chlorophenyl)-2-(4-hydroxyphenyl)-N-methylimidazo[1,2-a]pyrimidine-3-carboxamide] | 3 to 4 | Fold increase in GLP Release [4]: 1.69 fold
8 | CN(C(=O)c1c(-c2ccc(O)c(F)c2)nc2ncccn12)c1ccc(F)cc1 [compound 42, 2-(3-fluoro-4-hydroxyphenyl)-N-(4-fluorophenyl)-N-methylimidazo[1,2-a]pyrimidine-3-carboxamide] | 2 to 3 | 
9 | COc1ccc(-c2nc3ncccn3c2C(=O)N(C)c2ccc(F)cc2F)cc1F [compound 43, N-(2,4-difluorophenyl)-2-(3-fluoro-4-methoxyphenyl)-N-methylimidazo[1,2-a]pyrimidine-3-carboxamide] | 1.5 to 2 | 
10 | COc1ccc(-c2nc3ncccn3c2C(=O)N(C)c2ccc(Cl)cc2)cc1F [compound 44, N-(4-chlorophenyl)-2-(3-fluoro-4-methoxyphenyl)-N-methylimidazo[1,2-a]pyrimidine-3-carboxamide] | 3 to 4 | 
11 | COc1ccc(-c2nc3ncccn3c2C(=O)N(C)c2ccc(F)c(Cl)c2)cc1F [compound 45, N-(3-chloro-4-fluorophenyl)-2-(3-fluoro-4-methoxyphenyl)-N-methylimidazo[1,2-a]pyrimidine-3-carboxamide] | > 4 | 
12 | CN(C(=O)c1c(Oc2ccccc2)nc2ncccn12)c1ccc(Cl)cc1 [compound 47, N-(4-chlorophenyl)-N-methyl-2-phenoxyimidazo[1,2-a]pyrimidine-3-carboxamide] | 3 to 4 | 
13 | CN(C(=O)c1c(Oc2ccc(Cl)cc2)nc2ncccn12)c1ccc(Cl)cc1 [compound 48, 2-(4-chlorophenoxy)-N-(4-chlorophenyl)-N-methylimidazo[1,2-a]pyrimidine-3-carboxamide] | 2 to 3 | 
14 | COc1ccc(Oc2nc3ncccn3c2C(=O)N(C)c2ccc(Cl)cc2)cc1 [compound 49, N-(4-chlorophenyl)-2-(4-methoxyphenoxy)-N-methylimidazo[1,2-a]pyrimidine-3-carboxamide] | 3 to 4 | 
15 | CN(C(=O)c1c(Oc2ccc(Cl)cc2)nc2ncccn12)c1ccc(F)cc1 [compound 51, 2-(4-chlorophenoxy)-N-(4-fluorophenyl)-N-methylimidazo[1,2-a]pyrimidine-3-carboxamide] | 2 to 3 | 
16 | COc1ccc(N(C)C(=O)c2c(Oc3ccc(F)cc3)nc3ncccn23)cc1 [compound 52, 2-(4-fluorophenoxy)-N-(4-methoxyphenyl)-N-methylimidazo[1,2-a]pyrimidine-3-carboxamide] | 3 to 4 | 
17 | O=C(c1c(-c2ccc(F)cc2)nc2ncccn12)N(c1ccc(Cl)cc1)C1CC1 [compound 136, N-(4-chlorophenyl)-N-cyclopropyl-2-(4-fluorophenyl)imidazo[1,2-a]pyrimidine-3-carboxamide] | 3 to 4 | 

From patent US20150126530A1, “Novel Substituted Imidazopyrimidines as Gpbar1 Receptor Modulators” (Torrent Pharmaceuticals Limited., priority 2011, published 2015)
